Patent publication US20220354894A1, “Cell Composition Comprising Radiolabled Mesenchymal Stem Cells, Use Thereof and Method for Preparing Radiolabeled Mesenchymal Stem Cells” (Boehringer Ingelheim Veterinary Medicine Belgium, priority 2019, published 2022)

Assay: Planar scintigraphy biodistribution after IV injection in healthy horses (Example 6)
Format: in vivo
Conditions: horse
From the text: Four healthy adult horses (2 neutered male and 2 female horses, 7 to 19 years old) from two different breeds (2 Belgian warmblood and 2 French Trotter) were included in this study. All animals underwent a full veterinary examination before being included in the study and were stalled at least 2 days prior to the start of the study. During the study, the animals were housed in individual stables of 3.5 by 4 (L×W) according to normal housing procedures with water ad libitum and hay twice a day. During the study, a daily general clinical examination was performed (day 0-3). All horses received a total of two IV injections; the first consisted of free ^99mTc dissolved in DMEM which served as control. The second injection was administered three days later and consisted of ^99mTc-labelled ePB-MSC.
For the IV injections of the horses, a 18 G catheter was placed in the left jugular vein of each horse and sedation was achieved using detomidine hydrochloride (Domidine 10 mg/mL; Dechra, The Netherlands) 0.01 mg/kg body weight and butorphanol tartrate (butomidor 10 mg/mL; AST farma BV, Oudewater, Germany) 0.01 mg/kg body weight IV When required, detomidine hydrochloride (Domidine 10 mg/mL; Dechra) was added during the scan with a maximum of 0.002 mg/kg. The horses stood straight with all four limbs using a table to stabilize the head. On day 0, all four horses were IV injected with free ^99mTc dissolved in DMEM. Consequently, on day 3, all horses were IV injected with ^99mTc-labelled ePB-MSCs dissolved in DMEM as described above. Planar scintigraphy was performed 1 h and 6 h post-injection for both injections using a gamma camera (Equine HR, Medical Imaging Electronics) (matrix: 128×128; acquisition time: 60 seconds per time frame (60 frames); collimator: low energy high resolution (140 KeV, 15% symmetrical window); field of view: 600×410 mm). Following body parts were scanned: head, thorax and abdomen starting with the head, left thorax and left abdomen and continuing with the right abdomen and right thorax.
Distribution of the ^99mTc labelled ePB-MSCs and free ^99mTc was subjectively assessed through the whole body using Multimodality software (Nuclear diagnostics, Sweden). Different organs of interests were manually delineated for each horse at each time point: the lungs, bladder, stomach, kidney, parotid gland and thyroid. Radioactive counts per pixel were calculated for each organ of interest, decay corrected and divided by the initial injected radioactivity in the whole body to obtain a relative uptake value.

Compound: [O]=[99Tc](=[O])(=[O])[O-] [control product, ^99mTc Pertechnetate]
- radioactivity in the intestines: small activity
- accumulation in the kidneys (1 h and 6 h post-injection): no kidney accumulation
- accumulation in the stomach (1 h and 6 h post-injection): High accumulation
- radioactivity in the bladder (1 h and 6 h post-injection): accumulation was higher
- uptake in the lungs (1 h and 6 h post-injection): distinct radioactive uptake
- uptake in the parotid glands (1 h and 6 h post-injection): high uptake
- uptake in the thyroid gland (1 h and 6 h post-injection): very high accumulation
- organs in which accumulation was predominantly observed (1 h post-injection scans): stomach, thyroid, bladder and parotid glands
